According to ChEMBL document CHEMBL1641539 (Bioorg Med Chem Lett, 2011):

Experiments:
[1] = biological target: Vascular endothelial growth factor receptor 1 (Homo sapiens) (UniProt P17948); experiment: Inhibition of human Flt1 at 10 uM after 60 mins by TR-FRET assay; settings: values are per cent of control
[2] = biological target: Interleukin-1 receptor-associated kinase 1 (Homo sapiens) (UniProt P51617); experiment: Inhibition of human IRAK1 at 10 uM after 60 mins by TR-FRET assay; settings: values are per cent of control
[3] = biological target: Mitogen-activated protein kinase 1 (Homo sapiens, UniProt P28482); experiment: Inhibition of human MAPK1 at 10 uM after 60 mins by TR-FRET assay; settings: values are per cent of control
[4] = biological target: MAP kinase-activated protein kinase 2 (Homo sapiens) (UniProt P49137); experiment: Inhibition of human MAPKAP-K2 at 10 uM after 60 mins by TR-FRET assay; settings: values are per cent of control
Chain of MAP kinase-activated protein kinase 2 (Homo sapiens) (P49137 whole entry, looked up): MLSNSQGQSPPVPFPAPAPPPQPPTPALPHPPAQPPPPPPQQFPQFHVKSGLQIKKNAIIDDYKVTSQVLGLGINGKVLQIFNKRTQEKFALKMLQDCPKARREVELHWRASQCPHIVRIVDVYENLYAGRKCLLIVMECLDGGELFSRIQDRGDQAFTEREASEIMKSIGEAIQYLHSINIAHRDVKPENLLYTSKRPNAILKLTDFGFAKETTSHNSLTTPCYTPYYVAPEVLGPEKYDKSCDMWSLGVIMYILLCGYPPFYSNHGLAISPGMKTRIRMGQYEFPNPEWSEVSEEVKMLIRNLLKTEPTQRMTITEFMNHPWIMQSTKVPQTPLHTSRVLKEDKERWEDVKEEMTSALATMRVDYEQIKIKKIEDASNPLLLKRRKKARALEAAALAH

[5] = biological target: Hepatocyte growth factor receptor (Homo sapiens) (UniProt P08581); experiment: Inhibition of human Met at 10 uM after 60 mins by TR-FRET assay; settings: values are per cent of control
[6] = biological target: Macrophage-stimulating protein receptor (Homo sapiens) (UniProt Q04912); experiment: Inhibition of human Ron at 10 uM after 60 mins by TR-FRET assay; settings: values are per cent of control
Chain of Macrophage-stimulating protein receptor (Homo sapiens) (Q04912 25-304 limits assumed): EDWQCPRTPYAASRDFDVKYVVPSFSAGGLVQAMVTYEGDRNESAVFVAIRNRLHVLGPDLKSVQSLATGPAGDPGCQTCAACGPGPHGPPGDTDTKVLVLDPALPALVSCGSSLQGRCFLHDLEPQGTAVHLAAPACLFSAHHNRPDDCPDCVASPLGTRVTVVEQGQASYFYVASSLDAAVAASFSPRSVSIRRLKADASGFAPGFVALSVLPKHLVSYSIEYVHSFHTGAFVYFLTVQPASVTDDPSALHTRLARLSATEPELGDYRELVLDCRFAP
Chain of Macrophage-stimulating protein receptor (Homo sapiens) (Q04912 310-1400 limits assumed): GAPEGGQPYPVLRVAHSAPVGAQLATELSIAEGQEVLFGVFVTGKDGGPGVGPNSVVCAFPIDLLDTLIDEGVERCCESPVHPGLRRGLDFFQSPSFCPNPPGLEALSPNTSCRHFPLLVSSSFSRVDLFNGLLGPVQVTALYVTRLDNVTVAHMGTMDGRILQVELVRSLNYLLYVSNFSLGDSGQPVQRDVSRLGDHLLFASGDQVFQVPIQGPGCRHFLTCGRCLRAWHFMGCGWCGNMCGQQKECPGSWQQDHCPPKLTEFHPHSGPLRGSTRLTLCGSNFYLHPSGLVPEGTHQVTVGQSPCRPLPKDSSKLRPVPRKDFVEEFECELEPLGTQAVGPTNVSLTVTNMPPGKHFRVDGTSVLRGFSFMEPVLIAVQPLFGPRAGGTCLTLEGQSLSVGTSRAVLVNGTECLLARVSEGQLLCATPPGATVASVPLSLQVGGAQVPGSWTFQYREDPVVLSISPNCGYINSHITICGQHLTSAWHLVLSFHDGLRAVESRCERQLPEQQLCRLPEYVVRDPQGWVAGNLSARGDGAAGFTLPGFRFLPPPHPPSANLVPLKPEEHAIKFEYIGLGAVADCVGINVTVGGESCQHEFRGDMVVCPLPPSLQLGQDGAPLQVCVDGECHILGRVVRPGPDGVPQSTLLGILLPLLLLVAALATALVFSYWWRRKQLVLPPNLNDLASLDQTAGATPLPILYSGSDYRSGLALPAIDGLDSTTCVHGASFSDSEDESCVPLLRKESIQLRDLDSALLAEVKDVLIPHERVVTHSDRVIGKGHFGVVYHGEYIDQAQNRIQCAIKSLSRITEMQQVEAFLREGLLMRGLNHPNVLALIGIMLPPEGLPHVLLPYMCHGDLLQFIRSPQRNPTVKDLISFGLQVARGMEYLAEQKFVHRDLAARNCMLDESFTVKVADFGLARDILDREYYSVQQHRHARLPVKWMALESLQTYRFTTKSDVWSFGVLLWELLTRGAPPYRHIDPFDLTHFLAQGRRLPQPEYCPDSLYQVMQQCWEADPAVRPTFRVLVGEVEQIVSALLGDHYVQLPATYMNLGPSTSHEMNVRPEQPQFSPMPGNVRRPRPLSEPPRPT

[7] = biological target: Insulin receptor (Homo sapiens) (UniProt P06213); experiment: Inhibition of human IR at 10 uM after 60 mins by TR-FRET assay; values are per cent of control
[8] = biological target: Vascular endothelial growth factor receptor 2 (Homo sapiens) (UniProt P35968); experiment: Inhibition of human KDR at 10 uM after 60 mins by TR-FRET assay; values are per cent of control
[9] = biological target: Dual specificity mitogen-activated protein kinase kinase 1 (Homo sapiens) (UniProt Q02750); experiment: Inhibition of human MEK1 at 10 uM after 60 mins by TR-FRET assay; values are per cent of control
[10] = biological target: Myosin light chain kinase, smooth muscle (Homo sapiens) (UniProt Q15746); experiment: Inhibition of human MLCK at 10 uM after 60 mins by TR-FRET assay; values are per cent of control
[11] = biological target: Serine/threonine-protein kinase TAO1 (Homo sapiens) (UniProt Q7L7X3); experiment: Inhibition of human TAO1 at 10 uM after 60 mins by TR-FRET assay; values are per cent of control
[12] = biological target: Activated CDC42 kinase 1 (Homo sapiens) (UniProt Q07912); experiment: Inhibition of human ACK1 at 10 uM after 60 mins by TR-FRET assay; values are per cent of control
[13] = biological target: Serine/threonine-protein kinase Chk2 (Homo sapiens) (UniProt O96017); experiment: Inhibition of human CHK2 at 10 uM after 60 mins by TR-FRET assay; values are per cent of control
[14] = biological target: Serine/threonine-protein kinase PAK 2 (Homo sapiens) (UniProt Q13177); experiment: Inhibition of human PAK2 at 10 uM after 60 mins by TR-FRET assay; values are per cent of control
Chain of Serine/threonine-protein kinase PAK 2 (Homo sapiens) (Q13177 whole entry): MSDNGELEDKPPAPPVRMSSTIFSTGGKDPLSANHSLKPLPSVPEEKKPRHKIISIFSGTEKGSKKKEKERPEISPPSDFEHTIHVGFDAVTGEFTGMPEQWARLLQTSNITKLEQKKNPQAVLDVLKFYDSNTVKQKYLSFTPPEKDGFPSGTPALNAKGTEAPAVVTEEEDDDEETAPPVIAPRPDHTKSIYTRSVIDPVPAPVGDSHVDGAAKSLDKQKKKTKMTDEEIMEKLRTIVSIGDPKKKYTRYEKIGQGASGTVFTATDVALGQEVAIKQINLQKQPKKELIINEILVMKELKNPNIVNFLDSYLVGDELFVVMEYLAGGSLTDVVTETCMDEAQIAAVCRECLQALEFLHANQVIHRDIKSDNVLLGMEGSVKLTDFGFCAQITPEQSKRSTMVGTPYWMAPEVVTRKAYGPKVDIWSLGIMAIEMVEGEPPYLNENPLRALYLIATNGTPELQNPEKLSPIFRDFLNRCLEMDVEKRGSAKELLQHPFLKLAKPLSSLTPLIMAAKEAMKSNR

[15] = biological target: cAMP-dependent protein kinase catalytic subunit PRKX (Homo sapiens) (UniProt P51817); experiment: Inhibition of human PrKX at 10 uM after 60 mins by TR-FRET assay; values are per cent of control
[16] = biological target: Ephrin type-A receptor 1 (Homo sapiens) (UniProt P21709); experiment: Inhibition of human EphA1 at 10 uM after 60 mins by TR-FRET assay; values are per cent of control
[17] = biological target: Ephrin type-B receptor 3 (Homo sapiens) (UniProt P54753); experiment: Inhibition of human EphB3 at 10 uM after 60 mins by TR-FRET assay; values are per cent of control
[18] = biological target: Serine/threonine-protein kinase MARK1 (Homo sapiens) (UniProt Q9P0L2); experiment: Inhibition of human MARK1 at 10 uM after 60 mins by TR-FRET assay; values are per cent of control
Chain of Serine/threonine-protein kinase MARK1 (Homo sapiens) (Q9P0L2 whole entry, looked up): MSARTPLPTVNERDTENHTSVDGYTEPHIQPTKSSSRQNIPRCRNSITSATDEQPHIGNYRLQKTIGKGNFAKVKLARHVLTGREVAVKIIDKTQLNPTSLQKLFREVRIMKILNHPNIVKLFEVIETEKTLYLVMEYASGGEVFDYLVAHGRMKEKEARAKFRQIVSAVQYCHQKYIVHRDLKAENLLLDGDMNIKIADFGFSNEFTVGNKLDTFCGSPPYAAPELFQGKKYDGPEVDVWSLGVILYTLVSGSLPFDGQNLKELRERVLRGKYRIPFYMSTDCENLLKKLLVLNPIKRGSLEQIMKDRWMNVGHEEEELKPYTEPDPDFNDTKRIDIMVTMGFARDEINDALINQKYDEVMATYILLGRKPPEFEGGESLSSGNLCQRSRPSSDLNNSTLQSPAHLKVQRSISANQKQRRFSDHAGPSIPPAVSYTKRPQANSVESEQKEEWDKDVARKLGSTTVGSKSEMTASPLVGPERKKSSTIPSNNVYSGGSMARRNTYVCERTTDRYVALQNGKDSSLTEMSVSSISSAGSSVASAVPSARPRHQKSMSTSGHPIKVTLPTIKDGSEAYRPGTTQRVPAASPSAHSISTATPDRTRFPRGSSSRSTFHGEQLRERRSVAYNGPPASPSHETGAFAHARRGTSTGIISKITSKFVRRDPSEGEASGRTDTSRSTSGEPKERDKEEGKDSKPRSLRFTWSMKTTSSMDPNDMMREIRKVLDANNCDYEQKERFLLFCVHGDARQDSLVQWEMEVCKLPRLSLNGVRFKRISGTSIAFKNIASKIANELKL

[19] = biological target: Serine/threonine-protein kinase 33 (Homo sapiens) (UniProt Q9BYT3); experiment: Inhibition of human STK33 at 10 uM after 60 mins by TR-FRET assay; values are per cent of control
[20] = biological target: RAF proto-oncogene serine/threonine-protein kinase (Homo sapiens) (UniProt P04049); experiment: Inhibition of human c-RAF at 10 uM after 60 mins by TR-FRET assay; values are per cent of control
[21] = biological target: Eukaryotic elongation factor 2 kinase (Homo sapiens) (UniProt O00418); experiment: Inhibition of human eEF-2K at 10 uM after 60 mins by TR-FRET assay; values are per cent of control
Chain of Eukaryotic elongation factor 2 kinase (Homo sapiens) (O00418 whole entry): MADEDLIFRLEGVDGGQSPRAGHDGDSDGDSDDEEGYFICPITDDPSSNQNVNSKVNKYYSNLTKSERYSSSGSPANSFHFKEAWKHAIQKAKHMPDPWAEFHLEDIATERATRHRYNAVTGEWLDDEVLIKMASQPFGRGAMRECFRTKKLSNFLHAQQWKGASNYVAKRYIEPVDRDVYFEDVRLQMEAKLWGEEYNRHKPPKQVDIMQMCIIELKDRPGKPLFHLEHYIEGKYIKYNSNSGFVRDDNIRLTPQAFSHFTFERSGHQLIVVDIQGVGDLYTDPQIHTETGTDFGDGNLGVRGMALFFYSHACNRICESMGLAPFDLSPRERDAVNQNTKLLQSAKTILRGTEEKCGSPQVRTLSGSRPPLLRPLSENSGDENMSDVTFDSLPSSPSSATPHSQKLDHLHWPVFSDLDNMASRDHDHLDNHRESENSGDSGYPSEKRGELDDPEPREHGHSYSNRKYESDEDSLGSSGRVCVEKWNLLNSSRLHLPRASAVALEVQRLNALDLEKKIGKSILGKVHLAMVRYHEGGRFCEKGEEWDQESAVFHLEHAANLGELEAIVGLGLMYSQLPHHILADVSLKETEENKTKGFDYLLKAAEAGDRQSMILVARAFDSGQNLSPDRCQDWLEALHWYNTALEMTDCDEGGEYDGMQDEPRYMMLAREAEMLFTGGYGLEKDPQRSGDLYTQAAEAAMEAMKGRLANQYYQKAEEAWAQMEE

[22] = biological target: Ribosomal protein S6 kinase beta-1 (Homo sapiens) (UniProt P23443); experiment: Inhibition of human p70S6K at 10 uM after 60 mins by TR-FRET assay; values are per cent of control
[23] = biological target: Cyclin-dependent kinase 5/CDK5 activator 1 (Homo sapiens) (UniProt Q00535+Q15078); experiment: Inhibition of human CDK5/p25 at 10 uM after 60 mins by TR-FRET assay; values are per cent of control
Chain of Cyclin-dependent kinase 5/CDK5 activator 1 (Homo sapiens) (Q00535 whole entry): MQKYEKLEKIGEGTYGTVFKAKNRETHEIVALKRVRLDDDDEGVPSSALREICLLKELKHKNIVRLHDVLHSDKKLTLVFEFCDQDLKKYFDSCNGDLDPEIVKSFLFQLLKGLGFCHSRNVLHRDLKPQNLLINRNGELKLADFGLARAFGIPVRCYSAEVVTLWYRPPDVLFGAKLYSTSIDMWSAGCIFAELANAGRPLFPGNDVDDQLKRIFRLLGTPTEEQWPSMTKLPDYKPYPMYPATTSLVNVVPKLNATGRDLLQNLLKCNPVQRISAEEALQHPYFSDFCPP
Chain of Cyclin-dependent kinase 5/CDK5 activator 1 (Homo sapiens) (Q15078 99-307 partner limits assumed): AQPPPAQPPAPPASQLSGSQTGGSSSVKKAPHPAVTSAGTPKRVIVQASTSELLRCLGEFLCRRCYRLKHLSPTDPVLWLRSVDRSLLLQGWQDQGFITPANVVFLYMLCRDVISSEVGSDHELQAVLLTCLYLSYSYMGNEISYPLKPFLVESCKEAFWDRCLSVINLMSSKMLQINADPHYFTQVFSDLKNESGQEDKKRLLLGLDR

[24] = biological target: Glycogen synthase kinase-3 alpha (Homo sapiens) (UniProt P49840); experiment: Inhibition of human GSK3alpha at 10 uM after 60 mins by TR-FRET assay; values are per cent of control
Chain of Glycogen synthase kinase-3 alpha (Homo sapiens) (P49840 2-483 limits assumed): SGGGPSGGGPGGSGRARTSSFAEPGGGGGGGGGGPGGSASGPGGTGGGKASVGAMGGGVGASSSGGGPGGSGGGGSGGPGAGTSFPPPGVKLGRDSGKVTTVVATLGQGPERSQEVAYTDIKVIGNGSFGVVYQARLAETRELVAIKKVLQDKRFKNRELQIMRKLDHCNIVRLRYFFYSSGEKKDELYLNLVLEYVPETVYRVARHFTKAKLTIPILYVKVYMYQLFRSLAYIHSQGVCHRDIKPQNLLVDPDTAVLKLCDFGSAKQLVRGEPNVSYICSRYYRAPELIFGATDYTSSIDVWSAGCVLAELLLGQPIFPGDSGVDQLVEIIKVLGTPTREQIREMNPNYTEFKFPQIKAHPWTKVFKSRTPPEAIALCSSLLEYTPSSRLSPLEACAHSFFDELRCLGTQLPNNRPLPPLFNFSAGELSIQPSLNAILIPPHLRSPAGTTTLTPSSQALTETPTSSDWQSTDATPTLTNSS

[25] = biological target: Cyclin-dependent kinase 2/cyclin A (Homo sapiens) (UniProt P24941+P20248+P78396); experiment: Inhibition of human CDK2/cyclinA at 10 uM after 60 mins by TR-FRET assay; values are per cent of control
[26] = system: Proto-oncogene tyrosine-protein kinase Src (Homo sapiens), P12931 [T341M]; experiment: Inhibition of human Src T341M mutant at 10 uM after 60 mins by TR-FRET assay; values are per cent of control
[27] = system: Tyrosine-protein kinase ABL1 (Homo sapiens), P00519 [H396P]; experiment: Inhibition of human Abl H396P mutant at 10 uM after 60 mins by TR-FRET assay; values are per cent of control
[28] = system: Receptor-type tyrosine-protein kinase FLT3 (Homo sapiens), P36888 [D835Y]; experiment: Inhibition of human Flt3 D835Y mutant at 10 uM after 60 mins by TR-FRET assay; values are per cent of control

S=c1[nH]nc(-c2ccncc2)n1-c1ccc2ccccc2c1
residual activity [1]: 107%
residual activity [2]: 113%
residual activity [3]: 109%
residual activity [4]: 106%
residual activity [5]: 108%
residual activity [6]: 110%
residual activity [7]: 106%
residual activity [8]: 105%
residual activity [9]: 110%
residual activity [10]: 103%
residual activity [11]: 104%
residual activity [12]: 103%
residual activity [13]: 116%
residual activity [14]: 108%
residual activity [15]: 134%
residual activity [16]: 103%
residual activity [17]: 102%
residual activity [18]: 113%
residual activity [19]: 107%
residual activity [20]: 35%
residual activity [21]: 105%
residual activity [22]: 102%
residual activity [23]: 112%
residual activity [24]: 85%
residual activity [25]: 114%
residual activity [26]: 113%
residual activity [27]: 107%
residual activity [28]: 99%
